Experimental data: ChEMBL document CHEMBL1130645, “Synthesis and evaluation of artificial taxoids with antitumor and multi-drug resistance reversing activities” (1998)

What was measured:
[1] = Compound was evaluated for vincristine accumulation in ovarian MDR cancer cells (2780AD) at a concentration of 1.0 ug/mL.; type: functional, Homo sapiens
[2] = Compound was evaluated for vincristine accumulation in ovarian MDR cancer cells (2780AD) at a concentration of 10 ug/mL.; type: functional, Homo sapiens
Homo sapiens = species on record: Homo sapiens; experiment: Compound was evaluated for inhibition of tumor cell growth using sulforhodamine-B assay in human BSY-1 cell.; type: functional
P388 = experiment: Compound was evaluated for inhibition of tumor cell growth using sulforhodamine-B assay in mouse […] p338 cell line; type: functional
[3] = Compound was evaluated for inhibition of tumor cell growth using sulforhodamine-B assay in 38 human cell lines; type: functional

Row | GI50 (P388) | SMILES | Control [1] | Control [2] | GI50 (Homo sapiens) | GI50 [3]
1 | – | CC1=C2[C@@H](Sc3ccccc3)[C@H](OCCO)C3=C([C@H](OCc4ccccc4)[C@](O)(C[C@@H]1OC(=O)[C@H](O)[C@@H](NCc1ccccc1)c1ccccc1)C2(C)C)[C@@](C)(O)CCC3 | 151% | 217% | 9.5 µM | –
2 | 10 µM | CC(=O)O[C@@]1(C)CCCC2=C1[C@H](OCc1ccccc1)[C@]1(O)C[C@H](OC(=O)[C@H](O)[C@@H](NCc3ccccc3)c3ccccc3)C(C)=C([C@@H](Sc3ccccc3)[C@@H]2OCCO)C1(C)C | 80% | 102% | – | 10 µM
